Source: patent publication US20040259823A1, “Cationic amphiphiles as transfection vehicles” (priority 2001, published 2004)

Tests used:
Type in all cases: cell-based
HepG2 [1] = experiment: Cell survival after transfection (Table 3); details: HepG2, DOPE; note: tested at 6.8 µM
Procedure: (§1) Transfections were carried out following standard protocols as is described in EP 0755924. In numerous publications variations of transfection protocols are given. A person acquainted with the field of non-viral transfections, in particular transfections using cationic amphiphiles will be able to use the cationic amphiphiles of the invention in transfection methods known per se. In standard experiments COS-7 cells are transfected with plasmid DNA containing the β-galactosidase reporter gene. Upon successful transfection the cell produces the enzyme β-galactosidase whose activity can be easily measured. Other plasmids comprising alternative reporter genes such as the gene encoding Green Fluorescent Protein or Chloroamphenicol Acetyl Transferase are suited as well. For analyzing stable transfection a plasmid containing the neomycin resistance gene can be used. Toxicity of the cationic amphiphiles towards the cells can be monitored qualitatively and quantitatively by visual inspection of the cells and by a protein determination.
(§2) COS-7 and HepG2 cells were cultured in Dulbecco's Modified Eagle Medium (DMEM Gibco The Netherlands) containing 7% of fetal calf serum, 2 mM L-Glutamine, 100 units/ml of penicilin and […] of streptomycin at 37° C. in CO2/air (1:19).
(§3) Cells (1×10^5 cells/well) were seeded in 12-well plates and were allowed to grow overnight.
(§4) The complex of cationic amphiphile/helper lipid (1:1) with pCMV GFP was prepared at the charge ratio 2.5:1 (15 nmol lipid and 1 μg DNA), in 100 μl 10 mM HEPES (pH=7.4, 150 mM NaCl). After 10-15 min incubation at room temperature, the resulting complex was diluted in 1 ml medium (DMEM) and 0.5 ml of the mixture was added to the cells and incubated for 4 h at 37° C. The transfection efficiency expressed as a percentage of GFP positive cells was measured by FACS (Fluorescence Activated Cell Soorting) 48 hours after the transfection.
(§5) Control wells underwent identical steps except that no cationic amphiphile was added.

COS-7 and HepG2 cells [2] = experiment: Transfection with pCMV GFP plasmid, % GFP positive cells by FACS (cell line not given); details: cell line and helper lipid not given
Procedure: as §1
(§6) A solution of cationic amphiphile in a 50/50 molar ratio with DOPE, DOPC or cholesterol in chloroform was dried under a stream of nitrogen. The residual solvent was removed under vacuum. The lipid film was hydrated in water at room temperature and sonicated to clarity in a bath sonicator immediately before use.
(§7) A 4.7 kb pair plasmid containing the GFP reporter gene under control of the cytomegalovirus immediate early gene promoter/enhancer (pCMV GFP).DNA was isolated from E. coli using a Qiagen Plasmid Kit (QIAGEN Inc, USA). The plasmid concentration was determined by measuring the absoption at 260 nm using the relation 1.0 OD=50 μg/ml. The OD260/OD280 value was 1.95.
as §2, §3, §4, §5

COS-7 and HepG2 cells [3] = experiment: Cell survival after transfection (cell line not given); details: cell line and helper lipid not given; for % surv / % surv mean: Table 11
Procedure: as §1, §2, §3, §4, §5

HepG2 [4] = experiment: Transfection with pCMV GFP plasmid, % GFP positive cells by FACS (Table 3); details: HepG2, DOPE
Procedure: as §1, §6, §7, §2, §3, §4, §5
Throughout, for % surv mean: tested at 6.8 µM.

| Compound | % surv cells (HepG2 [1]; first value) | % surv cells Mean (HepG2 [1]) | % surv cells (HepG2 [1]; second value) | % TE (COS-7 and HepG2 cells [2]; Table 4) | % TE (COS-7 and HepG2 cells [2]; Table 6) | % surv cells (COS-7 and HepG2 cells [3]; Table 4) | % surv cells (COS-7 and HepG2 cells [3]; Table 6) | % TE (HepG2 [4]; first value) | % TE mean (HepG2 [4]) | % TE (HepG2 [4]; second value) | % TE (COS-7 and HepG2 cells [2]; Table 5) | % TE (COS-7 and HepG2 cells [2]; Table 11, first value) | % TE mean (COS-7 and HepG2 cells [2]; Table 11) | % TE (COS-7 and HepG2 cells [2]; Table 11, second value) | % surv cells (COS-7 and HepG2 cells [3]; Table 5) | % surv (COS-7 and HepG2 cells [3]; first value) | % surv mean (COS-7 and HepG2 cells [3]) | % surv (COS-7 and HepG2 cells [3]; second value) |
| --- | --- | --- | --- | --- | --- | --- | --- | --- | --- | --- | --- | --- | --- | --- | --- | --- | --- | --- |
| CCCCCCCC/C=C\CCCCCCCC[n+]1ccc(CCC)cc1.[Cl-] [SF39, 1-(9′-cis-octadecenyl)-4-propyl-pyridinium Chloride] | 24.55% | 28.015% | 31.48% | 4.38% | 0.84% | 66.48% | 92.2% | 0.1% | 0.085% | 0.07% | – | – | – | – | – | – | – | – |
| CCCCCCCC/C=C\CCCCCCCC[n+]1ccc(CCCCC)cc1.[Cl-] [SF40, 1-(9′-cis-octadecenyl)-4-pentyl-pyridinium Chloride] | 30.55% | 30.09% | 29.63% | 5.18% | 0.16% | 69.87% | 94.54% | 0.04% | 0.09% | 0.14% | – | – | – | – | – | – | – | – |
| CCCCCCCC/C=C\CCCCCCCC[n+]1ccc(CCCCCCC)cc1.[Cl-] [SF41, 1-(9′-cis-octadecenyl)-4-heptyl-pyridinium Chloride] | 28.65% | 34.62% | 40.59% | 7.13% | 3.44% | 60.54% | 89.11% | 0.07% | 0.085% | 0.1% | – | – | – | – | – | – | – | – |
| CCCCCCCC/C=C\CCCCCCCC[n+]1ccc(CCCCCCCCC)cc1.[Cl-] [SF42, 1-(9′-cis-octadecenyl)-4-nonyl-pyridinium Chloride] | 40.1% | 33.785% | 27.47% | 5.05% | 5.13% | 70.14% | 93.49% | 1.2% | 0.925% | 0.65% | 0.81% | 8.41% | 7.95% | 7.49% | 75.02% | 86.37% | 84.435% | 82.5% |
| CCCCCCCC/C=C\CCCCCCCC[n+]1ccc(CCCCCCCCCCC)cc1 [SF43, 1-(9′-cis-octadecenyl)-4-undecyl-pyridinium Chloride] | 52.11% | 53.845% | 55.58% | 9.18% | 10.22% | 68.12% | 86.86% | 5.71% | 5.805% | 5.9% | 0.55% | 24.6% | 24.2% | 23.8% | 85.51% | 85.42% | 84.395% | 83.37% |
| CCCCCCCC/C=C\CCCCCCCC[n+]1ccc(CCCCCCCCCCCCCCC)cc1.[Cl-] [SF44, 1-(9′-cis-octadecenyl)-4-pentadecyl-pyridinium Chloride] | 45.21% | 49.18% | 53.15% | 10.13% | 8.89% | 66.51% | 93.99% | 12.53% | 11.185% | 9.84% | 1.64% | 9.1% | 8.67% | 8.24% | 92.1% | 90.36% | 88.91% | 87.46% |
| CCCCCCCC/C=C\CCCCCCCC[n+]1ccc(CCCCCCCCCCCCCCCCC)cc1.[Cl-] [SF45, 1-(9′-cis-octadecenyl)-4-(heptadecyl) pyridinium Chloride] | 40.24% | 31.565% | 22.89% | 9.71% | 5.35% | 67.4% | 92.61% | 8.93% | 6.465% | 4% | 3.38% | 0.27% | 0.15% | 0.03% | 93.02% | 90.01% | 87.55% | 85.09% |
| CCCCCCCC/C=C\CCCCCCCCCc1cc[n+](CCCCCCCCCCCCCCCCCC)cc1.[Cl-] [SF46, 1-stearyl-4-(10′-cis-nonadecenyl)-pyridinium Chloride] | 16.79% | 15.445% | 14.1% | 9.17% | 1.11% | 72.57% | 93.55% | 11.65% | 9.07% | 6.49% | 2.71% | 10.6% | 10.6% | – | 76.34% | 87.02% | 87.02% | – |
| CCCCCCCCCCCCOC(=O)c1cc[n+](CCCCCCCCCCCC)cc1.[Cl-] [SF53, 1-dodecyl-4-(-carbo-(dodecyloxy)) pyridinium Chloride] | 37.51% | 37.51% | – | 9.04% | 0.56% | 65.91% | 91.74% | 2.13% | 2.13% | – | 0.71% | 6.67% | 6.67% | – | 91.6% | 84.51% | 84.51% | – |
